In one assay the target is T1, TbINO1 (Trypanosoma brucei brucei, UniProt Q5QQ46).
T1 sequence (Q5QQ46 1-528): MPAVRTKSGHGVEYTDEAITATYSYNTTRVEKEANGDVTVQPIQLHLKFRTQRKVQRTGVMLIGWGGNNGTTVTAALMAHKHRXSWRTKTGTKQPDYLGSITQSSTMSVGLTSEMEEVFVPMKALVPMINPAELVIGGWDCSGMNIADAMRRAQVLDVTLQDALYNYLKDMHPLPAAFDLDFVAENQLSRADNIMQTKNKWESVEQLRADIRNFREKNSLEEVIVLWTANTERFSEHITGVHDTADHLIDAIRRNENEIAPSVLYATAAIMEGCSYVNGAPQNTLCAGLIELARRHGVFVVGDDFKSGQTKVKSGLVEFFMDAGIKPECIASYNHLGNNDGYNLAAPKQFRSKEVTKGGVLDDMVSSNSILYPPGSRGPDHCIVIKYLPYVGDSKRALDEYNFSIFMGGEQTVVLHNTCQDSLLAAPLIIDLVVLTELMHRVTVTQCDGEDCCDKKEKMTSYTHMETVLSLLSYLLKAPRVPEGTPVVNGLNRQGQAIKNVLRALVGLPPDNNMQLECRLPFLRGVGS
Description: biochemical. The format is binding.

The test system of another assay is HeLa cells. Briefly: cells. The settings on record: for HeLa Cells Alamar Blue: Supplementary Table 1, compound 0.5 mM, percentage of controls, mean ± SD (n=3) or SE (n=2); for viability at 500 µM: 65 h. A digest of the protocol: (§1)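 Viability by Alamar Blue (5 h) after ~65 h drug treatment; seeding density 2 × 10^4 cells/well in DMEM supplemented with 10% FCS and 2 mM L-Glutamine.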

The next assay relates to A549 cells. Briefly: Cytotoxicity against A549 cells, Alamar Blue. The format is cell-based. The settings on record: Supplementary Table 1, compound 0.5 mM, percentage of controls (n=1); for viability at 500 µM: Homo sapiens, A549, 65 h. A digest of the protocol:
as §1

Setting [1] is: Supplementary Table 1, compound 1mM, mean ± SD from Boltzman curve fitting.
Where [2] appears, read: read-out: Tb Ino1 Tm Shift [˚C].
[3] abbreviates: Homo sapiens, HeLa, read-out: HeLa Cells Alamar Blue.
The mark [4] stands for this setting: Homo sapiens, HeLa, read-out: HeLa Cells Alamar Blue (% survival).
Where [5] appears, read: Supplementary Table 1, compound 1mM, mean ± SD from Boltzman curve fitting, read-out: Tb Ino1 Tm Shift [˚C].

The structures appear in SMILES notation. Like-named read-outs stand apart in the source and are kept apart here.

Consider `Nc1ccc2oc3c(c2c1)CCCC3` [compound 516, 6,7,8,9‐tetrahydrodibenzo[b,d]furan‐2‐amine], for which, on TbINO1 (setting [1]), the “Tb Ino1 Tm Shift [˚C]” value worked out at 0.2 ± 0.07 °C. Further, the “HeLa Cells Alamar Blue” value in the assay with HeLa cells is 108 ± 5.2 percentage of controls. For the same molecule, the “A549 Cells Alamar Blue” value in the assay on A549 cells was 68.2 percentage of controls.

Turning to `N#Cc1ncccc1N1CCCCC1` [compound 517, 3‐piperidin‐1‐ylpyridine‐2‐carbonitrile], the ΔTm at 1000 µM at TbINO1 (setting [2]) came out at 0.16 ± 0.07 °C. The viability at 500 µM amounted to 51.2 ± 17.9% in the assay on HeLa cells (setting [3]) and 54.7% in the assay on A549 cells.

`O=C(O)c1ccccc1-c1ccco1` [compound 520, 2-(2-furyl)benzoic acid]: the ΔTm at 1000 µM on TbINO1 (read-out: TbIno1 Tm shift [°C]) was found to be 4.29 ± 0.07 °C. Also, the viability at 500 µM in the assay with HeLa cells (setting [3]) was 73 ± 11.5%; in the assay with HeLa cells (setting [4]), 73 ± 11.5%; with A549 cells, 124%. Also, the CC50 in the assay with HeLa cells (Homo sapiens, HeLa, read-out: HeLa ED50) was above 20 mM.

As for `Cc1oc(-c2ccccc2)cc1CO` [compound 521, (2‐methyl‐5‐phenyl‐3‐furyl)methanol], the ΔTm at 1000 µM at TbINO1 (setting [2]) came to 1.27 ± 0.07 °C. Also, the viability at 500 µM with HeLa cells (setting [3]) is 41.5 ± 15%; with A549 cells, 57.1%.

Take `Cc1cc(CO)c(-c2ccccc2)o1` [compound 522, (5-methyl-2-phenyl-3-furyl)methanol]: the ΔTm at 1000 µM on TbINO1 (read-out: TbIno1 Tm shift [°C]) is 1.61 ± 0.06 °C. In addition, the viability at 500 µM with HeLa cells (setting [3]) is 24.3 ± 17.4%; in the assay on HeLa cells (setting [4]), 24.3 ± 17.4%; in the assay with A549 cells, 27.1%.

For `COC(=O)c1ccc(F)cc1Cl` [compound 531, methyl 2‐chloro‐4‐fluorobenzoate], at TbINO1 (setting [2]), the ΔTm at 1000 µM amounted to 0.25 ± 0.07 °C. Besides, the values for the viability at 500 µM with HeLa cells (setting [3]) and in the assay with A549 cells were 84 ± 11.8% and 75.7%, respectively.

On to `NC(=O)c1ccccc1C(F)(F)F` [compound 532, 2‐(trifluoromethyl)benzamide], for which the ΔTm at 1000 µM on TbINO1 (setting [2]) turned out to be 0.43 ± 0.07 °C. The viability at 500 µM was 88.3 ± 6.5% in the assay with HeLa cells (setting [3]) and 59.4% with A549 cells.

On to `O=C(O)CCc1c[nH]c2ccccc12` [compound 533, 3‐(1H‐indol‐3‐yl)propanoic acid], for which the ΔTm at 1000 µM at TbINO1 (setting [2]) amounted to 0.73 ± 0.07 °C. The figures for the viability at 500 µM in the assay with HeLa cells (setting [3]) and with A549 cells were 94.9 ± 6% and 67.2%, respectively.

Consider `CC(=O)Nc1ccc2c(c1)CCC2=O` [compound 535, N1‐(1‐oxo‐2,3‐dihydro‐1H‐inden‐5‐yl)acetamide], for which, at TbINO1 (setting [1]), the “Tb Ino1 Tm Shift [˚C]” value is 0.21 ± 0.07 °C. For the same molecule, in the assay with HeLa cells, the “HeLa Cells Alamar Blue” value was 87.3 ± 4.6 percentage of controls. Also, the “A549 Cells Alamar Blue” value with A549 cells is recorded as 76.5 percentage of controls.

On to `Cc1[nH]c2ccc(C(=O)O)cc2c1C` [compound 537, 2,3‐dimethyl‐1H‐indole‐5‐carboxylic acid], for which, at TbINO1 (setting [2]), the ΔTm at 1000 µM came out at 0.7 ± 0.08 °C. In addition, the viability at 500 µM in the assay on HeLa cells (setting [3]) was found to be 89.3 ± 2.4%; in the assay with A549 cells, 74.5%.

As for `CC(=O)Oc1ccc(C)c2c1CCC2` [compound 541, 7‐methyl‐2,3‐dihydro‐1H‐inden‐4‐yl acetate], on TbINO1 (setting [1]), the “Tb Ino1 Tm Shift [˚C]” value is 0.01 ± 0.07 °C. The “HeLa Cells Alamar Blue” value in the assay on HeLa cells is recorded as 79.8 ± 6.6 percentage of controls. Besides, in the assay with A549 cells, the “A549 Cells Alamar Blue” value was 93.1 percentage of controls.

For the molecule `OCc1ccc(-c2cccs2)cc1` [compound 544, (4‐thien‐2‐ylphenyl)methanol], the ΔTm at 1000 µM at TbINO1 (setting [2]) came to 0.16 ± 0.08 °C. The viability at 500 µM in the assay with HeLa cells (setting [3]) is 74.7 ± 10.2%; in the assay on A549 cells, 80%.

Take `Cc1nc(-c2ccc(N)cc2)cs1` [compound 547, 4‐(2‐methyl‐1,3‐thiazol‐4‐yl)phenylamine]: the ΔTm at 1000 µM at TbINO1 (setting [2]) was determined as 0.12 ± 0.07 °C. Moreover, the viability at 500 µM with HeLa cells (setting [3]) stood at 74.3 ± 11%; in the assay on A549 cells, 63.2%.

For the molecule `NCc1cccc(CN2CCCC2)c1` [compound 550, [3‐(1‐pyrrolidinylmethyl)phenyl]methanamine], the “Tb Ino1 Tm Shift [˚C]” value at TbINO1 (setting [1]) came out at 0.03 ± 0.07 °C. The “HeLa Cells Alamar Blue” value in the assay with HeLa cells is on record as 47.8 ± 11.7 percentage of controls. In the assay on A549 cells, the “A549 Cells Alamar Blue” value is 108.7 percentage of controls.

Turning to `CN1C2CCC1CC(=NO)C2.Cl` [compound 552, 8‐methyl‐8‐azabicyclo[3.2.1]octan‐3‐one oxime hydrochloride], on TbINO1 (setting [1]), the “Tb Ino1 Tm Shift [˚C]” value was determined as 0 ± 0.09 °C. Besides, the “HeLa Cells Alamar Blue” value with HeLa cells is given as 103.5 ± 9.7 percentage of controls. In the assay with A549 cells, the “A549 Cells Alamar Blue” value is given as 105.3 percentage of controls.

As for `O=C(O)c1cnccc1C(F)(F)F` [compound 553, 4‐(trifluoromethyl)nicotinic acid], the ΔTm at 1000 µM on TbINO1 (setting [2]) amounted to 0.28 ± 0.07 °C. Further, the viability at 500 µM in the assay with HeLa cells (setting [3]) is 102 ± 12.4%; in the assay with A549 cells, 103%.

Take `CN(N)c1cc(C(F)(F)F)ccn1` [compound 554, 2‐(1‐methylhydrazino)‐4‐(trifluoromethyl)pyridine]: at TbINO1 (setting [1]), the “Tb Ino1 Tm Shift [˚C]” value came out at 0.15 ± 0.08 °C. Further, in the assay with HeLa cells, the “HeLa Cells Alamar Blue” value is on record as 95.6 ± 16.7 percentage of controls. For the same molecule, the “A549 Cells Alamar Blue” value in the assay on A549 cells is 96.1 percentage of controls.

For the molecule `O=C(O)c1cc2ccccc2cn1` [compound 555, isoquinoline‐3‐carboxylic acid hydrate], the ΔTm at 1000 µM at TbINO1 (setting [5]) was found to be 0.5 ± 0.09 °C. The figures for the viability at 500 µM with HeLa cells (setting [3]) and in the assay with A549 cells were 92.1 ± 10.1% and 100%, respectively.

With `OCc1ccc(-c2ccccn2)s1` [compound 556, [5‐(2‐pyridinyl)‐2‐thienyl]methanol], the ΔTm at 1000 µM at TbINO1 (setting [2]) worked out at 0.19 ± 0.08 °C. Also, the values for the viability at 500 µM with HeLa cells (setting [3]) and with A549 cells were 70.2 ± 11% and 93.9%, respectively.

`NC(=S)C1=Cc2ccccc2OC1` [compound 558, 2H‐chromene‐3‐carbothioamide]: the ΔTm at 1000 µM at TbINO1 (setting [2]) was determined as 0.05 ± 0.09 °C. Also, the viability at 500 µM in the assay on HeLa cells (setting [3]) is 80.8 ± 8.8%; in the assay on A549 cells, 98.1%.

As for `OCc1ccc(CN2CCCC2)cc1` [compound 559, [4‐(pyrrolidin‐1‐ylmethyl)phenyl]methanol], at TbINO1 (setting [1]), the “Tb Ino1 Tm Shift [˚C]” value came out at 0.05 ± 0.08 °C. Further, in the assay with HeLa cells, the “HeLa Cells Alamar Blue” value is 91.7 ± 15.8 percentage of controls. Also, the “A549 Cells Alamar Blue” value with A549 cells is listed as 110 percentage of controls.

Consider `CN1CCN(c2ccccc2N)CC1` [compound 561, 2‐(4‐methylpiperazin‐1‐yl)aniline], for which the ΔTm at 1000 µM on TbINO1 (setting [5]) stood at 0.46 ± 0.07 °C. In addition, the viability at 500 µM with HeLa cells (setting [3]) was found to be 74.3 ± 11.7%; with A549 cells, 101%.

Regarding `OCc1ccc(OC(F)(F)F)cc1` [compound 563, [4‐(trifluoromethoxy)phenyl]methanol], at TbINO1 (setting [2]), the ΔTm at 1000 µM is 0.01 ± 0.07 °C. Besides, the viability at 500 µM stood at 94.5 ± 8.3% in the assay with HeLa cells (setting [3]) and 92.9% with A549 cells.

In the case of `CC1(C)Cc2cccc(C(=O)O)c2O1` [compound 564, 2,2‐dimethyl‐2,3‐dihydro‐1‐benzofuran‐7‐carboxylic acid], the “Tb Ino1 Tm Shift [˚C]” value on TbINO1 (setting [1]) is 0.35 ± 0.07 °C. In the assay with HeLa cells, the “HeLa Cells Alamar Blue” value was 91.1 ± 19 percentage of controls. Also, in the assay on A549 cells, the “A549 Cells Alamar Blue” value is 101.2 percentage of controls.

In the case of `OCc1csc(-c2cccnc2)n1` [compound 566, (2‐pyridin‐3‐yl‐1,3‐thiazol‐4‐yl)methanol], the ΔTm at 1000 µM on TbINO1 (setting [2]) was 0.29 ± 0.07 °C. Besides, the viability at 500 µM worked out at 88.4 ± 18.2% in the assay with HeLa cells (setting [3]) and 104% in the assay on A549 cells.

`Nc1ccc(CN2CCOCC2)cc1` [compound 567, 4‐(morpholinomethyl)aniline]: the ΔTm at 1000 µM on TbINO1 (setting [2]) is 0.61 ± 0.05 °C. Besides, the viability at 500 µM was 90.1 ± 15.9% in the assay on HeLa cells (setting [3]) and 103% in the assay with A549 cells.

As for `OCc1ccnc(N2CCCCC2)c1` [compound 568, (2‐piperidinopyrid‐4‐yl)methanol], the ΔTm at 1000 µM on TbINO1 (setting [2]) is 0.03 ± 0.07 °C. For the same molecule, the viability at 500 µM in the assay with HeLa cells (setting [3]) stood at 94.5 ± 18.7%; in the assay on A549 cells, 103%.

(Values after publication PMC3199943, “Screening the MayBridge Rule of 3 Fragment Library for Compounds That Interact with the Trypanosoma brucei myo-Inositol-3-Phosphate Synthase and/or Show Trypanocidal Activity” (Molecular Biology International, 2011).)
